# Measurements as given in PubChem BioAssay (NCI).
#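 Growth conditions: 96-well plates. Treatment: test compound, 48 hours, 5 concentrations. Analysis: linear interpolation between bracketing concentrations; unreached endpoints set to highest concentration. GI50 is the concentration that inhibits growth by half. TGI: total growth inhibition.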
# What was measured:
# Assay in all cases: DTP human tumour cell line panel, 48 h
# DU-145 prostate = test system: DU-145 prostate
# NCI-H226 lung = test system: NCI-H226 lung
# NCI-H23 lung = test system: NCI-H23 lung
# HCC-2998 colon = test system: HCC-2998 colon
# HT29 colon = test system: HT29 colon
# MOLT-4 leukemia = test system: MOLT-4 leukemia
# HCT-116 colon = test system: HCT-116 colon
# RPMI-8226 leukemia = test system: RPMI-8226 leukemia
# U251 CNS = test system: U251 CNS
# MDA-N = test system: MDA-N
# LOX IMVI melanoma = test system: LOX IMVI melanoma
# NCI-H460 lung = test system: NCI-H460 lung
# MALME-3M melanoma = test system: MALME-3M melanoma
# A498 renal = test system: A498 renal
# OVCAR-4 ovarian = test system: OVCAR-4 ovarian
# K-562 leukemia = test system: K-562 leukemia
# HOP-92 NSCLC = test system: HOP-92 NSCLC
# UO-31 renal = test system: UO-31 renal
# TK-10 renal = test system: TK-10 renal
# ACHN renal = test system: ACHN renal
# PC-3 prostate = test system: PC-3 prostate
# SNB-19 CNS = test system: SNB-19 CNS
# SK-MEL-5 melanoma = test system: SK-MEL-5 melanoma
# COLO 205 colon = test system: COLO 205 colon
# SF-295 CNS = test system: SF-295 CNS
# HCT-15 colon = test system: HCT-15 colon
# SR leukemia = test system: SR leukemia
# SF-539 CNS = test system: SF-539 CNS
# OVCAR-8 ovarian = test system: OVCAR-8 ovarian
# CCRF-CEM leukemia = test system: CCRF-CEM leukemia
# MDA-MB-435 = test system: MDA-MB-435
# BT-549 breast = test system: BT-549 breast
# 786-0 renal = test system: 786-0 renal
# OVCAR-5 ovarian = test system: OVCAR-5 ovarian
# CAKI-1 renal = test system: CAKI-1 renal
# KM12 colon = test system: KM12 colon
# SN12C renal = test system: SN12C renal
# HOP-62 NSCLC = test system: HOP-62 NSCLC
# UACC-257 melanoma = test system: UACC-257 melanoma
# A549 NSCLC = test system: A549 NSCLC
# HL-60(TB) leukemia = test system: HL-60(TB) leukemia
# NCI-H522 lung = test system: NCI-H522 lung
# SF-268 CNS = test system: SF-268 CNS
# RXF 393 renal = test system: RXF 393 renal
# OVCAR-3 ovarian = test system: OVCAR-3 ovarian
# SNB-75 CNS = test system: SNB-75 CNS
# SW-620 colon = test system: SW-620 colon
# NCI/ADR-RES ovarian = test system: NCI/ADR-RES ovarian
# SK-MEL-28 melanoma = test system: SK-MEL-28 melanoma
# MCF7 breast = test system: MCF7 breast
# EKVX NSCLC = test system: EKVX NSCLC
# MDA-MB-231 breast = test system: MDA-MB-231 breast
# HS 578T breast = test system: HS 578T breast
# UACC-62 melanoma = test system: UACC-62 melanoma
# M14 melanoma = test system: M14 melanoma
# SK-OV-3 ovarian = test system: SK-OV-3 ovarian
# T-47D breast = test system: T-47D breast
# IGROV1 ovarian = test system: IGROV1 ovarian
# SK-MEL-2 melanoma = test system: SK-MEL-2 melanoma
structure (smiles),measurement,setting,value
Nc1nc(Cl)c(CO)c(NCC2(CO)CC(CCc3ccccc3)C2)n1 (configuration not stated),TGI,DU-145 prostate,> 100 µM
same,TGI,NCI-H226 lung,36.3 µM
same,TGI,NCI-H23 lung,37.5 µM
same,TGI,HCC-2998 colon,> 100 µM
same,TGI,HT29 colon,81.6 µM
same,TGI,MOLT-4 leukemia,14.7 µM
same,TGI,HCT-116 colon,31.9 µM
same,TGI,RPMI-8226 leukemia,35.2 µM
same,TGI,U251 CNS,> 100 µM
same,TGI,MDA-N,> 100 µM
same,TGI,LOX IMVI melanoma,50.4 µM
same,TGI,NCI-H460 lung,56.9 µM
same,TGI,MALME-3M melanoma,42.5 µM
same,TGI,A498 renal,> 100 µM
same,TGI,OVCAR-4 ovarian,54.9 µM
same,TGI,K-562 leukemia,43.1 µM
same,TGI,HOP-92 NSCLC,73.1 µM
same,TGI,UO-31 renal,68.8 µM
same,TGI,TK-10 renal,> 100 µM
same,TGI,ACHN renal,> 100 µM
same,TGI,PC-3 prostate,> 100 µM
same,TGI,SNB-19 CNS,> 100 µM
same,TGI,SK-MEL-5 melanoma,39.4 µM
same,TGI,COLO 205 colon,> 100 µM
same,TGI,SF-295 CNS,> 100 µM
same,TGI,HCT-15 colon,> 100 µM
same,TGI,SR leukemia,> 100 µM
same,TGI,SF-539 CNS,> 100 µM
same,TGI,OVCAR-8 ovarian,35.6 µM
same,TGI,CCRF-CEM leukemia,69.5 µM
same,TGI,MDA-MB-435,26.5 µM
same,TGI,BT-549 breast,71.1 µM
same,TGI,786-0 renal,> 100 µM
same,TGI,OVCAR-5 ovarian,> 100 µM
same,TGI,CAKI-1 renal,> 100 µM
same,TGI,KM12 colon,14.2 µM
same,TGI,SN12C renal,> 100 µM
same,TGI,HOP-62 NSCLC,99.3 µM
same,TGI,UACC-257 melanoma,32.4 µM
same,TGI,A549 NSCLC,34.5 µM
same,TGI,HL-60(TB) leukemia,28.9 µM
same,TGI,NCI-H522 lung,86.3 µM
same,TGI,SF-268 CNS,> 100 µM
same,TGI,RXF 393 renal,63 µM
same,TGI,OVCAR-3 ovarian,63.1 µM
same,TGI,SNB-75 CNS,51.2 µM
same,TGI,SW-620 colon,54.2 µM
same,TGI,NCI/ADR-RES ovarian,73.8 µM
same,TGI,SK-MEL-28 melanoma,47 µM
same,TGI,MCF7 breast,45.5 µM
same,TGI,EKVX NSCLC,> 100 µM
same,TGI,MDA-MB-231 breast,39.1 µM
CS(=O)(=O)CCNCc1ccc(-c2ccc3ncnc(Nc4ccc(OCc5ccccc5)cc4)c3c2)o1,GI50,DU-145 prostate,5.3 µM
same,TGI,DU-145 prostate,> 25 µM
same,GI50,NCI-H226 lung,13.2 µM
same,TGI,NCI-H226 lung,> 25 µM
same,GI50,NCI-H23 lung,8.57 µM
same,TGI,NCI-H23 lung,> 25 µM
same,GI50,HCC-2998 colon,5.26 µM
same,TGI,HCC-2998 colon,12.1 µM
same,GI50,HT29 colon,3.33 µM
same,TGI,HT29 colon,13.5 µM
same,GI50,MOLT-4 leukemia,9.31 µM
same,TGI,MOLT-4 leukemia,> 25 µM
same,GI50,HCT-116 colon,5.99 µM
same,TGI,HCT-116 colon,> 17 µM
same,GI50,RPMI-8226 leukemia,5.38 µM
same,TGI,RPMI-8226 leukemia,> 16.8 µM
same,GI50,U251 CNS,6.2 µM
same,TGI,U251 CNS,> 25 µM
same,GI50,LOX IMVI melanoma,4.05 µM
same,TGI,LOX IMVI melanoma,8.75 µM
same,GI50,NCI-H460 lung,3.73 µM
same,TGI,NCI-H460 lung,> 25 µM
same,GI50,MALME-3M melanoma,4.99 µM
same,TGI,MALME-3M melanoma,11.1 µM
same,GI50,A498 renal,2.98 µM
same,TGI,A498 renal,8.27 µM
same,GI50,OVCAR-4 ovarian,11.1 µM
same,TGI,OVCAR-4 ovarian,> 25 µM
same,GI50,K-562 leukemia,9.27 µM
same,TGI,K-562 leukemia,> 25 µM
same,GI50,HOP-92 NSCLC,3.13 µM
same,TGI,HOP-92 NSCLC,14.1 µM
same,GI50,UO-31 renal,2.95 µM
same,TGI,UO-31 renal,8.95 µM
same,GI50,TK-10 renal,0.285 µM
same,TGI,TK-10 renal,9.7 µM
same,GI50,ACHN renal,1.28 µM
same,TGI,ACHN renal,> 25 µM
same,GI50,PC-3 prostate,7.23 µM
same,TGI,PC-3 prostate,> 23.7 µM
same,GI50,SNB-19 CNS,11.1 µM
same,TGI,SNB-19 CNS,> 25 µM
same,GI50,HS 578T breast,6.43 µM
same,TGI,HS 578T breast,> 20.5 µM
same,GI50,SK-MEL-5 melanoma,3.72 µM
same,TGI,SK-MEL-5 melanoma,7.11 µM
same,GI50,COLO 205 colon,5 µM
same,TGI,COLO 205 colon,11.4 µM
same,GI50,SF-295 CNS,4.89 µM
same,TGI,SF-295 CNS,10.8 µM
same,GI50,HCT-15 colon,4.13 µM
same,TGI,HCT-15 colon,13.4 µM
same,GI50,SR leukemia,5.06 µM
same,TGI,SR leukemia,> 19.9 µM
same,GI50,UACC-62 melanoma,4.68 µM
same,TGI,UACC-62 melanoma,8.98 µM
same,GI50,M14 melanoma,4.89 µM
same,TGI,M14 melanoma,9.74 µM
same,GI50,SK-OV-3 ovarian,0.401 µM
same,TGI,SK-OV-3 ovarian,> 25 µM
same,GI50,T-47D breast,4.01 µM
same,TGI,T-47D breast,> 25 µM
same,GI50,SF-539 CNS,4.91 µM
same,TGI,SF-539 CNS,11 µM
same,GI50,OVCAR-8 ovarian,8.73 µM
same,TGI,OVCAR-8 ovarian,> 25 µM
same,GI50,CCRF-CEM leukemia,0.631 µM
same,TGI,CCRF-CEM leukemia,> 15.6 µM
same,GI50,MDA-MB-435,4.94 µM
same,TGI,MDA-MB-435,11.4 µM
same,GI50,BT-549 breast,5.85 µM
same,TGI,BT-549 breast,17.5 µM
same,GI50,786-0 renal,4.35 µM
same,TGI,786-0 renal,8.73 µM
same,GI50,OVCAR-5 ovarian,6.51 µM
same,TGI,OVCAR-5 ovarian,> 25 µM
same,GI50,IGROV1 ovarian,3.45 µM
same,TGI,IGROV1 ovarian,> 18.8 µM
same,GI50,CAKI-1 renal,2.04 µM
same,TGI,CAKI-1 renal,> 25 µM
same,GI50,KM12 colon,8.85 µM
same,TGI,KM12 colon,> 25 µM
same,GI50,SN12C renal,5.87 µM
same,TGI,SN12C renal,> 25 µM
same,GI50,HOP-62 NSCLC,9.66 µM
same,TGI,HOP-62 NSCLC,> 25 µM
same,GI50,UACC-257 melanoma,4.38 µM
same,TGI,UACC-257 melanoma,8.56 µM
same,GI50,A549 NSCLC,5.19 µM
same,TGI,A549 NSCLC,> 25 µM
same,GI50,HL-60(TB) leukemia,6.4 µM
same,TGI,HL-60(TB) leukemia,14 µM
same,GI50,NCI-H522 lung,3.32 µM
same,TGI,NCI-H522 lung,10.4 µM
same,GI50,SF-268 CNS,9.14 µM
same,TGI,SF-268 CNS,> 25 µM
same,GI50,RXF 393 renal,4.12 µM
same,TGI,RXF 393 renal,10.1 µM
same,GI50,OVCAR-3 ovarian,8.47 µM
same,TGI,OVCAR-3 ovarian,> 25 µM
same,GI50,SNB-75 CNS,5.71 µM
same,TGI,SNB-75 CNS,> 25 µM
same,GI50,SW-620 colon,6.94 µM
same,TGI,SW-620 colon,> 17.3 µM
same,GI50,SK-MEL-2 melanoma,5.5 µM
same,TGI,SK-MEL-2 melanoma,10.7 µM
same,GI50,NCI/ADR-RES ovarian,6.71 µM
same,TGI,NCI/ADR-RES ovarian,> 25 µM
same,GI50,SK-MEL-28 melanoma,4.04 µM
same,TGI,SK-MEL-28 melanoma,7.83 µM
same,GI50,MCF7 breast,2.84 µM
same,TGI,MCF7 breast,> 17.7 µM
same,GI50,EKVX NSCLC,0.371 µM
same,TGI,EKVX NSCLC,24.7 µM
same,GI50,MDA-MB-231 breast,4.82 µM
same,TGI,MDA-MB-231 breast,11.1 µM
c1ccc(CCCCNCc2cc(CNCCCCc3ccccc3)cc(CNCCCCc3ccccc3)c2)cc1,TGI,DU-145 prostate,2.07 µM
same,TGI,NCI-H23 lung,2.11 µM
same,TGI,HCT-116 colon,6.42 µM
same,TGI,MDA-N,10.2 µM
same,TGI,NCI-H460 lung,> 100 µM
same,TGI,K-562 leukemia,> 100 µM
same,TGI,UO-31 renal,0.949 µM
same,TGI,ACHN renal,2.95 µM
same,TGI,SNB-19 CNS,0.908 µM
same,TGI,COLO 205 colon,0.644 µM
same,TGI,SF-295 CNS,3.06 µM
same,TGI,HCT-15 colon,0.368 µM
same,TGI,M14 melanoma,0.33 µM
same,TGI,SK-OV-3 ovarian,3.41 µM
same,TGI,CCRF-CEM leukemia,0.432 µM
same,TGI,BT-549 breast,2.83 µM
same,TGI,786-0 renal,26.4 µM
same,TGI,OVCAR-5 ovarian,3.22 µM
same,TGI,SN12C renal,23.5 µM
same,TGI,A549 NSCLC,0.326 µM
same,TGI,HL-60(TB) leukemia,0.434 µM
same,TGI,OVCAR-3 ovarian,2.77 µM
same,TGI,NCI/ADR-RES ovarian,1.1 µM
same,TGI,SK-MEL-28 melanoma,1.84 µM
